Reference: patent US12516058B2, “Small-molecule compounds for controlling endosomal toll-like receptors and therapeutic agent for autoimmune diseases using same” (priority 2020, dated 2026)
Entries after “also recorded” stand apart in the source; their conditions may differ.

How the values were obtained:
TLR7 = target: T1, TLR7 (Mus musculus, UniProt P58681); test: TNF-α secretion ELISA after TLR7 agonist imiquimod (IMQ) in RAW 264.7 cells; format: cell-based; conditions: SK21 to SK82 at 0.5 μM or 2 μM, Imiquimod 1 μg/ml
T1 construct: endogenous in cells; host or cells: RAW 264.7
T1 sequence (P58681 27-1050): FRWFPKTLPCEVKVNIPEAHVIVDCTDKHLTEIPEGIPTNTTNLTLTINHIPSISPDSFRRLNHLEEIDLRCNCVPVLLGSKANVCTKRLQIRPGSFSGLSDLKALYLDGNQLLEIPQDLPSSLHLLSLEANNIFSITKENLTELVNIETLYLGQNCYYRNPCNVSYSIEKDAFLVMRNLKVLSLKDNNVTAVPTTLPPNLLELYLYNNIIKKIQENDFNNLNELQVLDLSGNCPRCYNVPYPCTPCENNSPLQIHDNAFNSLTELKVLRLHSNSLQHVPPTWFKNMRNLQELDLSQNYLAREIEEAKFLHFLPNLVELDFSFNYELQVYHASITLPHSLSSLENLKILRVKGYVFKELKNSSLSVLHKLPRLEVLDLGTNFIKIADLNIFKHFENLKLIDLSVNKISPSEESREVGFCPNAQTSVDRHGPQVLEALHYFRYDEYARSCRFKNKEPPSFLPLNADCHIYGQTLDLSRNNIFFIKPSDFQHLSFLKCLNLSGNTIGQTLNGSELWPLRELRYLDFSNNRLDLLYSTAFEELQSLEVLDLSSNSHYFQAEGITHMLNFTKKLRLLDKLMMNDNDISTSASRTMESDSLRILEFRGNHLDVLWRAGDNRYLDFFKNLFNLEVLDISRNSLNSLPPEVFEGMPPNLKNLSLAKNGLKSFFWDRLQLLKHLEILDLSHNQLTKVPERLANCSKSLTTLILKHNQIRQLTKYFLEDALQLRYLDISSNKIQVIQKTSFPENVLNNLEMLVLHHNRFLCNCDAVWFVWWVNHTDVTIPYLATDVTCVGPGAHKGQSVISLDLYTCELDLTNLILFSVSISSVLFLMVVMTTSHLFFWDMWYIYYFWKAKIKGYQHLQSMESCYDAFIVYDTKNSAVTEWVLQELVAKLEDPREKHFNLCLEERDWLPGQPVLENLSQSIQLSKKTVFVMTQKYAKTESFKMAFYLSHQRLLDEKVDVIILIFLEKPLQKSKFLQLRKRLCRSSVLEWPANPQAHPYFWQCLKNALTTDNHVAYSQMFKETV
Experimental: (§1) In order to determine the inhibitory activities of the test-ligand, RAW 264.7 cells were pretreated with each candidate compound for 1 hour, then treated with Pam3CSK4 (synthetic triacyl lipopeptide; TLR1/2, Invitrogen), FSL-1 (synthetic diacyl lipoprotein, TLR2/6, 100 ng/ml), lipopolysaccharide (LPS, TLR4, Sigma Aldrich), imiquimod (IMQ, TLR7, Invitrogen), and ODN2395 (type C CpG repeat motif DNA oligo(5′-[…]-3), TLR9, Bioneer) ligand for 4 hours, and treated with poly I:C (I:C repeat motif double-stranded RNA, TLR3, Invitrogen) and TL8-506 (TLR8, Invitrogen) showing delayed reactivity for 24 hours. After activation of TLR, the supernatant was diluted in an appropriate ratio so as to measure within the standard dose range, transferred to a pre-coated 96-well assay plate, and then treated with mouse TNF-alpha secretion level in accordance with the manufacturer's instructions using a mouse-TNF-alpha ELISA-kit (Invitrogen).
(§2) In order to plot the concentration-dependent LC50 curves, treatment with the SK series ligands at different concentrations up to 200 μM (the highest concentration that could be treated within the level of 0.5% DMSO) was performed. Then, cell viability and toxicity response upon treatment with ligands were analyzed by MTT as described in Examples 1-3. Cell viability in each plot was normalized from negative control (100%; no treatment) to positive control (highest concentration of test-ligand), and LC50 was determined by non-linear regression (Graph Pad Prism 7.0). In order to plot the concentration-dependent IC50 curves, pre-treatment with the SK series ligands was performed at different concentrations up to 50 μM (twice the initial concentration). Cell responses mediated by TLR7 and TLR9 (levels of TNF-α secretion) were analyzed by ELISA as described in Examples 1-4. The cytokine level in each plot was normalized from negative control (non-treated) to positive control (treatment with ligand), and IC50 was determined by non-linear regression (Graph Pad Prism 7.0).
(§3) In order to select potential inhibitory molecules against TLR3/TLR7/TLR8/TLR9 activation, first, MTT (3-(4,5-dimethylthiazol-2-yl)-2,5-diphenyltetrazolium bromide) cell viability assay (FIG. 7) was performed upon treatment with a set of ligands from SK21 to SK82 at a concentration of 20 μM and the inhibitory activity thereof was evaluated by an ELISA assay to monitor the level of TNF-α secretion in RAW 264.7 cells. The experimental ligands from SK21 to SK82 were administered at 0.5 μM or 2 μM to the RAW 264.7 cells and stimulated with Imiquimod (TLR7, 1 μg/ml) and OND2395 (TLR9, 0.5 μM).

TLR9 = target: T2, TLR9 (Mus musculus, UniProt Q9EQU3); test: TNF-α secretion ELISA after TLR9 agonist ODN2395 in RAW 264.7 cells; format: cell-based; conditions: SK21 to SK82 at 0.5 μM or 2 μM, ODN2395 0.5 μM
T2 construct: endogenous in cells; host or cells: RAW 264.7
T2 sequence (Q9EQU3 26-1032): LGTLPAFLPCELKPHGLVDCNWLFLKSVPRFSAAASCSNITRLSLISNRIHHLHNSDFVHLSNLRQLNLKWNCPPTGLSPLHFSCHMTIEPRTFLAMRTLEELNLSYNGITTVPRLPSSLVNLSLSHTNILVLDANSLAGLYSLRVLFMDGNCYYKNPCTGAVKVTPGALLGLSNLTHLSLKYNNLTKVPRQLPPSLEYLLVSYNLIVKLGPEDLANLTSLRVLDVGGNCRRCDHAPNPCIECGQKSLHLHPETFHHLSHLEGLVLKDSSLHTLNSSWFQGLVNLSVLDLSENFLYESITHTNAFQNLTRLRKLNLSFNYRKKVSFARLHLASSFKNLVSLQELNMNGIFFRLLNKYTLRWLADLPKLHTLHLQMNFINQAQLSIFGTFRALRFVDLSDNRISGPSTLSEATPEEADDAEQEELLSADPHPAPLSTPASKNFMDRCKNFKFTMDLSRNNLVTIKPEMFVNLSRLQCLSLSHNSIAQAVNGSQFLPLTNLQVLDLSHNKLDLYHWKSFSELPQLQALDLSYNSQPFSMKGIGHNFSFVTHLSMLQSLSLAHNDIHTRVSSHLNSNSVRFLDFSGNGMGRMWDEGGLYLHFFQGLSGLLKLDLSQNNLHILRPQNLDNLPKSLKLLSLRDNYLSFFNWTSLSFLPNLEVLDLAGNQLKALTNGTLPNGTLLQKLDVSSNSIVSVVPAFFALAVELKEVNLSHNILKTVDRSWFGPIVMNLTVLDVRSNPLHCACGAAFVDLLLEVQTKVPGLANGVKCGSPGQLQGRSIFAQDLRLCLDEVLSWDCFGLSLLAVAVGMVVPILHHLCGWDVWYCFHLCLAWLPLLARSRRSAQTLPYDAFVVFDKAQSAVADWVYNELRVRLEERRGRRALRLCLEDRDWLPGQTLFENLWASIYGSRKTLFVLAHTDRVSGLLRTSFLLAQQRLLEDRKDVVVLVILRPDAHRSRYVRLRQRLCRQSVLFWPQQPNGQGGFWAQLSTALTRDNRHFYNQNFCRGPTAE
Experimental: as §1, §2, §3

| Compound | inhibitory activity against TLR7 (level of TNF-α secretion) (TLR7) | inhibitory activity against TLR9 (level of TNF-α secretion) (TLR9) | inhibitory activity against TLR7 (level of TNF-α secretion) (TLR7; listed as SK 74) | inhibitory activity against TLR9 (level of TNF-α secretion) (TLR9; listed as SK 74) |
| --- | --- | --- | --- | --- |
| CN(C)CCCn1c2ccc(C#N)cc2c2c(N)c3c(nc21)CCCC3 [SK62, 11-amino-6-(3-(dimethylamino)propyl)-2,3,4,6-tetrahydro-1H-indolo[2,3-b]quinolin-9-carbonitrile] | significant inhibitory activity; also recorded: significantly reduced | significant inhibitory activity; also recorded: significantly reduced |  |  |
| CN(C)CCCn1c2ccc(C(F)(F)F)cc2c2c(N)c3c(nc21)CCCC3 [SK63, 6-(3-(dimethylamino)propyl)-9-(trifluoromethyl)-2,3,4,6-tetrahydro-1H-indolo[2,3-b]quinolin-11-amine] | significant inhibitory activity; also recorded: significantly reduced | significant inhibitory activity; also recorded: significantly reduced |  |  |
| COc1ccc2c3c(N)c4c(nc3n(CCCN(C)C)c2c1)CCCC4 [SK65, 6-(3-(dimethylamino)propyl)-8-methoxy-2,3,4,6-tetrahydro-1H-indolo[2,3-b]quinolin-11-amine] | significant inhibitory activity; also recorded: significantly reduced | significant inhibitory activity; also recorded: significantly reduced |  |  |
| CN(C)CCCn1c2ccc(OCc3ccccc3)cc2c2c(N)c3c(nc21)CCCC3 [SK69, 9-(benzyloxy)-6-(3-(dimethylamino)propyl)-2,3,4,6-tetrahydro-1H-indolo[2,3-b]quinolin-11-amine] | significant inhibitory activity; also recorded: significantly reduced | significant inhibitory activity; also recorded: significantly reduced |  |  |
| CC(C)Oc1ccc2c(c1)c1c(N)c3c(nc1n2CCCN(C)C)CCCC3 [SK70, 6-(3-(dimethylamino)propyl)-9-isopropoxy-2,3,4,6-tetrahydro-1H-indolo[2,3-b]quinolin-11-amine] | significant inhibitory activity; also recorded: significantly reduced | significant inhibitory activity; also recorded: significantly reduced |  |  |
| CN(C)CCCn1c2ccc(O)cc2c2c(N)c3c(nc21)CCCC3 [SK71, 11-amino-6-(3-(dimethylamino)propyl)-2,3,4,6-tetrahydro-1H-indolo[2,3-b]quinolin-9-ol] | significant inhibitory activity; also recorded: significantly reduced | significant inhibitory activity; also recorded: significantly reduced |  |  |
| CN(C)CCCNc1c2c(nc3c1c1c4ccccc4ccc1n3CCCN(C)C)CCCC2 [SK72, N1-(7-(3-(dimethylamino)propyl)-9,10,11,12-tetrahydro-7H-benzo[4,5]indolo[2,3-b]quinolin-13-yl)-N3,N3-dimethylpropane-1,3-diamine] | significant inhibitory activity; also recorded: significantly reduced | significant inhibitory activity; also recorded: significantly reduced |  |  |
| CN(C)CCCn1c2ccc3ccccc3c2c2c(N)c3c(nc21)CCCC3 [SK74, 7-(3-(dimethylamino)propyl)-9,10,11,12-tetrahydro-7H-benzo[4,5]indolo[2,3-b]quinolin-13-amine] | significantly reduced | significantly reduced | significant inhibitory activity | significant inhibitory activity |
| CNCCCn1c(C)c(C)c2c(N)c3c(nc21)CCCCCC3 [SK75, 2,3-dimethyl-1-(3-(methylamino)propyl)-5,6,7,8,9,10-hexahydro-1H-cycloocta[b]pyrrolo[3,2-e]pyridin-4-amine] | significant inhibitory activity; also recorded: significantly reduced | significant inhibitory activity; also recorded: significantly reduced |  |  |
| Cc1ccc2c3c(N)c4c(nc3n(CCCN(C)C)c2c1)CCCC4 [SK81, 6-(3-(dimethylamino)propyl)-8-methyl-2,3,4,6-tetrahydro-1H-indolo[2,3-b]quinolin-11-amine] | significant inhibitory activity; also recorded: significantly reduced | significant inhibitory activity; also recorded: significantly reduced |  |  |
| CN(C)CCCn1c2cc(Cl)ccc2c2c(N)c3c(nc21)CCCC3 [SK82, 8-chloro-6-(3-(dimethylamino)propyl)-2,3,4,6-tetrahydro-1H-indolo[2,3-b]quinolin-11-amine] | significant inhibitory activity; also recorded: significantly reduced | significant inhibitory activity; also recorded: significantly reduced |  |  |
